Test results reported in article PMC11647725, “Discovery of 4-(5-Membered)Heteroarylether-6-methylpicolinamide Negative Allosteric Modulators of Metabotropic Glutamate Receptor Subtype 5” (ACS Medicinal Chemistry Letters, 2024).

Tests used:
[1] = target: T1, human mGlu3 (Homo sapiens, UniProt Q14832); test: mGlu selectivity, thallium flux GIRK assay; format: cell-based
T1 construct: expressed in transfected cells
Procedure: (§1) the presence of 5% CO2, the dye solutions were removed and replaced with assay buffer using a microplate washer, leaving 20 μL of assay buffer in the cell plate. The compound, agonist, and cell plates were placed inside the Functional Drug Screening System (FDSS 7000 or uCell, Hamamatsu, Japan) to measure the calcium flux. Assays were run at 37 °C. A triple add protocol was used to measure Ca kinetics. Briefly, after establishment of a fluorescence baseline for 2 seconds (excitation, 480 nm; emission, 530 nm), 20 µL of test compound was added to the cells and the response was measured for 140 seconds. This was followed by the addition of 10 µL (5X) of an EC20 concentration of Glu agonist, and the response of the cells was measured for 125 seconds. A third addition occurred by adding 12 uL (5X) of an EC80 concentration of Glu agonist and the response of the cells was measured for 90 seconds. […] Calcium fluorescence was recorded as fold over basal fluorescence and raw data were normalized to the maximal response to Glu agonist (ECMax). Compound-evoked decreases in calcium response in the presence of Glu EC80 agonist were determined as inhibition activity, and potency (IC50) and maximum inhibition responses (% GluMin) of compounds were determined using a four-parameter logistical equation using GraphPad Prism (La Jolla, CA) or the Dotmatics software platform (Woburn, MA) : […]
(§2) The mGlu subtype selectivity of compounds was determined using calcium mobilization or thallium flux GIRK (G protein-regulated inwardly rectifying K channel) assays using the stable cell lines expressing the respective mGlu receptors. […]
(§3) at RT using DL-AP4 for the agonist. mGlu8 cells were incubated with dye solution for 50 min at 37 °C in the presence of […] and FDSS assays were run at RT. To measure activity at mGlu2 and mGlu3, HEK293-GIRK cells stably expressing human mGlu2 and mGlu3 were assessed using thallium flux assay through GIRK channels as previously described in detail.3 […]

[2] = target: T2, human mGlu2 (Homo sapiens, UniProt Q14416); test: mGlu selectivity, thallium flux GIRK assay; format: cell-based
T2 construct: expressed in transfected cells
Procedure: as §1, §2, §3

T1 sequence (Q14832 23-879): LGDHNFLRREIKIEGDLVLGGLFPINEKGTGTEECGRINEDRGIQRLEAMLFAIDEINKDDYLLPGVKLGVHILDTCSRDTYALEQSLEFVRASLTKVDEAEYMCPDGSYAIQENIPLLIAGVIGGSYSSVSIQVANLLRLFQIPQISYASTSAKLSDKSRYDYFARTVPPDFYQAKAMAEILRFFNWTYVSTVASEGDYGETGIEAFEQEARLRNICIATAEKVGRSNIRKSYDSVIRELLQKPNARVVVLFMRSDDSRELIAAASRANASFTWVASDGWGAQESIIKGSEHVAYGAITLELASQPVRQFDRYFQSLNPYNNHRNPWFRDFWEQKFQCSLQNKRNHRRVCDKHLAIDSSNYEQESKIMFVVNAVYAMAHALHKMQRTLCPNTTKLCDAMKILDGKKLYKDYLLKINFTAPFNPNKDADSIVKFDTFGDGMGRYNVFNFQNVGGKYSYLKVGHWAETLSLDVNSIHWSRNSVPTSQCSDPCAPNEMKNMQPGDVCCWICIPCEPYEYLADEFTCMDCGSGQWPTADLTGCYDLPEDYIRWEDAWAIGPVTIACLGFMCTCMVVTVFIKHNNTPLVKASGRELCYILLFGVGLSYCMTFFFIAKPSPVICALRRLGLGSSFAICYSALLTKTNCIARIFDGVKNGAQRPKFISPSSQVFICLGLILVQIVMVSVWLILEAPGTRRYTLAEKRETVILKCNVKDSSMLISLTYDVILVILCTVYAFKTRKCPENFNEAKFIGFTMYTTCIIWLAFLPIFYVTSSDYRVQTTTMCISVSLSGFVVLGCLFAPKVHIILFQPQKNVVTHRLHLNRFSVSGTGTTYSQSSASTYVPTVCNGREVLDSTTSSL
T2 sequence (Q14416 19-872): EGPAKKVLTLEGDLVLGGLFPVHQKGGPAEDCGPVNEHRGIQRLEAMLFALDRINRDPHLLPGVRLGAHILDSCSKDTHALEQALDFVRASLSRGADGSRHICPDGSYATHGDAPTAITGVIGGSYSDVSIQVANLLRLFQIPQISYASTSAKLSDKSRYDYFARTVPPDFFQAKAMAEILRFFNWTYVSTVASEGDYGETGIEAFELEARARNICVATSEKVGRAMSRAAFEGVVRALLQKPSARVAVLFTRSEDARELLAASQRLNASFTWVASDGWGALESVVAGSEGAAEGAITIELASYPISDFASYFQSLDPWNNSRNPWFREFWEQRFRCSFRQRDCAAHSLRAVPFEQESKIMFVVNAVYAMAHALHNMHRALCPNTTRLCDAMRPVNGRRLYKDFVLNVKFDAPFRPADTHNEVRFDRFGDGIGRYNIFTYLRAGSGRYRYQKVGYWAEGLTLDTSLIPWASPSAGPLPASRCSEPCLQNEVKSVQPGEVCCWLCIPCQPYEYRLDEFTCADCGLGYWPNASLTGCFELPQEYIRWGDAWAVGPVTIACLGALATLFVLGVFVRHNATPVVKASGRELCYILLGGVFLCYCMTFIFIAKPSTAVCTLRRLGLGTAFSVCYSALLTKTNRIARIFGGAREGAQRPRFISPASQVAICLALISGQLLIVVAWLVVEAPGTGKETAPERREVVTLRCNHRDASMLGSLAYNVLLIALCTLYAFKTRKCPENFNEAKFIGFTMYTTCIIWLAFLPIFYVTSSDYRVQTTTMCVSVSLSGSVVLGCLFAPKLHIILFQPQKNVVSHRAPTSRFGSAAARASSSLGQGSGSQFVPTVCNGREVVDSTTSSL

Cc1cc(Oc2cnn(C)c2)cc(C(=O)Nc2ccc(F)cn2)n1 [22iA]
%GluMin, human mGlu3 [1]: [58] %
IC50 [1]: > 10 µM
IC50, human mGlu2 [2]: inactive
